# Key:
# [1] = molecular target: MMP-13CD (catalytic domain of collagenase 3) (Homo sapiens, UniProt P45452); assay: Thiopeptolide hydrolysis assay, MMP-13; conditions: IC50 μM, Table V; MMP-13;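 note: inhibition of enzymatic thiopeptolide substrate cleavage (100 µM) in pH 6.0 MES buffer with CaCl2 and DTNB, comparing hydrolysis with versus without inhibitor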
# MMP-13 = MMP-13 (Homo sapiens, UniProt P45452); conditions: cited from earlier work
# other MMP enzymes = conditions: Chen et al.; cited from earlier work
smiles,measurement,setting,value
"O=C(O)c1ccc(Cn2c(=O)c3cc(C(=O)NCc4ccc5c(c4)OCO5)ccc3n3cnnc23)cc1 [Synthesis Example 61, 4-{7-[(1,3-Benzodioxol-5-ylmethyl)-carbamoyl]-5-oxo-5H-[1,2,4]triazolo[4,3-a]quinazol-4-ylmethyl}benzoic acid]",IC50,[1],0.0009 µM
same,melting point,,235 °C
Cc1cc(C)c(N(Cc2ccccc2)S(=O)(=O)c2ccc(OCCNC(=O)c3cc4ccccc4o3)cc2)c(C(=O)NO)c1 [WAY-170523],selectivity for MMP-13,MMP-13; as reported by Chen et al.,selective inhibitor of MMP-13
O=C(NCCCCN1CCOCC1)c1cc2ccccc2o1 [compound of the formula I],activity against other MMP enzymes,other MMP enzymes,inactive
same,inhibition against MMP-13,"MMP-13; high throughput screening hit, Chen et al.",weak inhibition
